In ChEMBL document CHEMBL1146841, “Discovery of thiochroman derivatives bearing a carboxy-containing side chain as orally active pure antiestrogens” (Bioorg Med Chem Lett, 2006):

Key:
[1] = molecular target: T1, Estrogen receptor (Homo sapiens) (UniProt P03372); assay: Displacement of [3H]estradiol from human recombinant ERalpha relative to estradiol
T1 sequence (whole entry): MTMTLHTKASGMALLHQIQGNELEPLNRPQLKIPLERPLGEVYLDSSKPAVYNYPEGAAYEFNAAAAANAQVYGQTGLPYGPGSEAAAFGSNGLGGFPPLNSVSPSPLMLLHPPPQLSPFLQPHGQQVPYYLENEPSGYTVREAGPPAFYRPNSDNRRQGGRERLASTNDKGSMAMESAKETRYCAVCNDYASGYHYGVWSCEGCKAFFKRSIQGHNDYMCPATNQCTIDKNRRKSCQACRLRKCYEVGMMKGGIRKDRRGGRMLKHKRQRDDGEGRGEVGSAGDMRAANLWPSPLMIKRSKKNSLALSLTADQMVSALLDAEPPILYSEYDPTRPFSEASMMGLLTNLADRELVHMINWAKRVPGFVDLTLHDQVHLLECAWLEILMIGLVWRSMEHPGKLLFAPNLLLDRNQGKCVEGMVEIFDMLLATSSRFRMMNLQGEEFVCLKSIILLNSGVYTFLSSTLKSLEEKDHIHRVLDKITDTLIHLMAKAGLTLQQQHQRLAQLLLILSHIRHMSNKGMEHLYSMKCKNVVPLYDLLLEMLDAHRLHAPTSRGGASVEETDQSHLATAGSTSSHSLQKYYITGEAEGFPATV

[2] = system: Mus musculus; assay: Antagonist activity assessed as inhibition of estrogen-stimulated uterine weight gain in ovariectomized mouse at 10 mg/kg, sc; type: functional; conditions: route subcutaneous
[3] = system: Mus musculus; assay: Antagonist activity assessed as inhibition of estrogen-stimulated uterine weight gain in ovariectomized mouse at 50 mg/kg, po; type: functional
[4] = system: Mus musculus; assay: Agonist activity assessed as increase in uterine weight in ovariectomized mouse at 10 mg/kg, sc; type: functional; conditions: route subcutaneous
[5] = system: Mus musculus; assay: Antagonist activity assessed as inhibition of estrogen-stimulated uterine weight gain in ovariectomized mouse at 10 mg/kg, po; type: functional
[6] = system: Mus musculus; assay: Antagonist activity assessed as inhibition of estrogen-stimulated uterine weight gain in ovariectomized mouse at 30 mg/kg, po; type: functional
[7] = AUC in duodenally dosed Sprague-Dawley rat portal vein at 10 mg/kg; type: ADME, organism-based; design: dose 10 mg/kg, route intraduodenal; conditions: portal vein plasma
[8] = AUC in duodenally dosed Sprague-Dawley rat peripheral blood at 10 mg/kg; type: ADME, organism-based; design: dose 10 mg/kg, route intraduodenal
[9] = system: Rattus norvegicus; assay: AUC in Sprague-Dawley rat at 10 mg/kg, iv; type: ADME, organism-based, Plasma; design: dose 10 mg/kg, route intravenous; conditions: in vivo
[10] = system: Rattus norvegicus; assay: (§1) AUC in Sprague-Dawley rat at 20 mg/kg, po; type: ADME, organism-based, Plasma; design: dose 20 mg/kg, route oral; conditions: in vivo
[11] = Bioavailability in Sprague-Dawley rat; type: ADME, organism-based; conditions: in vivo
[12] = system: Mus musculus; assay: Antagonist activity assessed as inhibition of estrogen-stimulated uterine weight gain in ovariectomized mouse at 3 mg/kg, po; type: functional
[13] = as §1; type: ADME, organism-based, Plasma; design: dose 20 mg/kg, route oral; conditions: Sprague-Dawley, plasma

SMILES | RBA [1] [%] | inhibition in vivo at 10 mg/kg [2] [%] | inhibition in vivo at 50 mg/kg [3] [%] | Activity [4] [%] | inhibition in vivo at 10 mg/kg [5] [%] | inhibition in vivo at 30 mg/kg [6] [%] | AUC [7] [ng·h/mL] | AUC [8] [ng·h/mL] | AUC [9] [ng·h/mL] | AUC [10] [ng·h/mL] | bioavailability [11] [%] | inhibition in vivo at 3 mg/kg [12] [%] | AUC [13] [ng·h/mL]
C[C@]1(c2ccc(O)cc2)COc2cc(O)ccc2[C@H]1CCCCCCCCC[S+]([O-])CCCC(F)(F)C(F)(F)F (some centres undefined) | 96 | 94 | 88 | 1 | 66 |  |  |  |  |  |  |  | 
C[C@]1(c2ccc(O)cc2)CSc2cc(O)ccc2[C@H]1CCCCCCCC(CCCC(F)(F)C(F)(F)F)C(=O)O (some centres undefined) | 0.5 |  |  |  | 20 |  |  |  |  |  |  |  | 
C[C@]12CC[C@@H]3c4ccc(O)cc4C[C@@H](CCCCCCCCC[S+]([O-])CCCC(F)(F)C(F)(F)F)[C@H]3[C@@H]1CC[C@@H]2O (some centres undefined) [FULVESTRANT] | 138 | 95 | 86 | -1 | 54 | 72 | 56 | 7 | 5300 | 1670 | 16 | 29 | 
C[C@]1(c2ccc(O)cc2)CSc2cc(O)ccc2[C@H]1CCCCCCCCC[S+]([O-])CCCC(F)(F)C(F)(F)F (some centres undefined) | 200 | 101 | 94 | -2 | 51 |  | 88 | 13 | 8220 |  | 22 |  | 3590
C[C@]1(c2ccc(O)cc2)CSc2cc(O)ccc2[C@H]1CCCCCCCCC(CCCCC(F)(F)C(F)(F)F)C(=O)O (some centres undefined) | 1.3 |  |  |  | 87 | 97 |  |  |  |  |  | 69 | 
C[C@]1(c2ccc(O)cc2)CSc2cc(O)ccc2[C@H]1CCCCCCCCCNC(=O)NS(=O)(=O)CCCC(F)(F)C(F)(F)F | 1.2 | 33 |  | 8 |  |  |  |  |  |  |  |  | 
C[C@]1(c2ccc(O)cc2)CSc2cc(O)ccc2[C@H]1CCCCCCCCCCC(CCCC(F)(F)C(F)(F)F)C(=O)O (some centres undefined) | 0.2 |  |  |  | 62 |  |  |  |  |  |  |  | 
COC(=O)C(CCCCCCCC[C@@H]1c2ccc(O)cc2SC[C@]1(C)c1ccc(O)cc1)CCCC(F)(F)C(F)(F)F (some centres undefined) | 7 | 52 |  | -1 | 40 |  |  |  |  |  |  |  | 
C[C@]1(c2ccc(O)cc2)CSc2cc(O)ccc2[C@H]1CCCCCCCCC(CCCCCC(F)(F)C(F)(F)F)C(=O)O (some centres undefined) | 0.8 |  |  |  | 86 | 94 |  |  |  |  |  | 52 | 
C[C@]1(c2ccc(O)cc2)COc2cc(O)ccc2[C@H]1CCCCCCCCCNC(=O)NCCCC(F)(F)C(F)(F)F | 57 | 77 |  | 10 | 1 |  |  |  |  |  |  |  | 
C[C@]1(c2ccc(O)cc2)CSc2cc(O)ccc2[C@H]1CCCCCCCCCC(CCCC(F)(F)C(F)(F)F)C(=O)O (some centres undefined) | 0.9 |  |  |  | 81 |  |  |  |  |  |  | 45 | 
C[C@]1(c2ccc(O)cc2)COc2cc(O)ccc2[C@H]1CCCCCCCCCNS(=O)(=O)NCCCC(F)(F)C(F)(F)F | 42 | 100 | 69 | 1 | 41 |  |  |  |  |  |  |  | 
C[C@]1(c2ccc(O)cc2)CSc2cc(O)ccc2[C@H]1CCCCCCCCC(CCC(F)(F)C(F)(F)C(F)(F)C(F)(F)F)C(=O)O (some centres undefined) | 0.6 |  |  |  | 93 | 96 |  |  |  |  |  | 63 | 
C[C@]1(c2ccc(O)cc2)CSc2cc(O)ccc2[C@H]1CCCCCCCCC(CCCC(F)(F)C(F)(F)F)C(=O)O (some centres undefined) | 0.8 | 95 |  | 1 | 77 | 94 | 2510 | 2040 | 228000 | 209000 | 46 | 41 | 
C[C@]1(c2ccc(O)cc2)CSc2cc(O)ccc2[C@H]1CCCCCCCCC(CCCC(F)(F)C(F)(F)C(F)(F)C(F)(F)F)C(=O)O (some centres undefined) | 0.3 |  |  |  | 93 | 99 |  |  |  |  |  | 61 | 
C[C@]1(c2ccc(O)cc2)CSc2cc(O)ccc2[C@H]1CCCCCCCCCNS(=O)(=O)CCCC(F)(F)C(F)(F)F | 52 | 99 | 73 | 3 | 31 |  |  |  |  |  |  |  | 
C[C@]1(c2ccc(O)cc2)CSc2cc(O)ccc2[C@H]1CCCCCCCCCC(CCC(F)(F)C(F)(F)C(F)(F)C(F)(F)F)C(=O)O (some centres undefined) | 0.3 |  |  |  | 85 | 99 |  |  |  |  |  | 38 | 
C[C@]1(c2ccc(O)cc2)CSc2cc(O)ccc2[C@H]1CCCCCCCCCC(CCCC(F)(F)C(F)(F)C(F)(F)C(F)(F)F)C(=O)O (some centres undefined) | 0.4 |  |  |  | 86 | 100 |  |  |  |  |  | 55 | 
C[C@]1(c2ccc(O)cc2)CSc2cc(O)ccc2[C@H]1CCCCCCCCCC(CCCCC(F)(F)C(F)(F)F)C(=O)O (some centres undefined) | 0.2 |  |  |  | 79 | 96 |  |  |  |  |  | 53 | 
